Measurements: PubChem BioAssay (NCI)
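In this assay, cells in 96-well plates receive the compound at five concentrations for 48 hours. Endpoints are linearly interpolated between the surrounding concentrations. GI50 is the concentration that inhibits growth by half. At the TGI there is no net growth.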

Legend:
Assay in all cases: NCI anticancer screen, dose series, 48 h
UO-31 renal = system: UO-31 renal
COLO 205 colon = system: COLO 205 colon
CCRF-CEM leukemia = system: CCRF-CEM leukemia
K-562 leukemia = system: K-562 leukemia
MALME-3M melanoma = system: MALME-3M melanoma
SW-620 colon = system: SW-620 colon
SK-MEL-2 melanoma = system: SK-MEL-2 melanoma
OVCAR-8 ovarian = system: OVCAR-8 ovarian
ACHN renal = system: ACHN renal
MCF7 breast = system: MCF7 breast
SF-295 CNS = system: SF-295 CNS
NCI-H522 lung = system: NCI-H522 lung
SNB-75 CNS = system: SNB-75 CNS
IGROV1 ovarian = system: IGROV1 ovarian
UACC-62 melanoma = system: UACC-62 melanoma
HT29 colon = system: HT29 colon
SK-MEL-5 melanoma = system: SK-MEL-5 melanoma
HCT-15 colon = system: HCT-15 colon
HCT-116 colon = system: HCT-116 colon
NCI-H23 lung = system: NCI-H23 lung
SK-OV-3 ovarian = system: SK-OV-3 ovarian
CAKI-1 renal = system: CAKI-1 renal
RXF 393 renal = system: RXF 393 renal
MOLT-4 leukemia = system: MOLT-4 leukemia
NCI-H460 lung = system: NCI-H460 lung
786-0 renal = system: 786-0 renal
HOP-62 NSCLC = system: HOP-62 NSCLC
SNB-19 CNS = system: SNB-19 CNS
OVCAR-4 ovarian = system: OVCAR-4 ovarian
SF-268 CNS = system: SF-268 CNS
U251 CNS = system: U251 CNS
T-47D breast = system: T-47D breast
OVCAR-5 ovarian = system: OVCAR-5 ovarian
OVCAR-3 ovarian = system: OVCAR-3 ovarian
KM12 colon = system: KM12 colon
DU-145 prostate = system: DU-145 prostate
NCI-H226 lung = system: NCI-H226 lung
M14 melanoma = system: M14 melanoma
TK-10 renal = system: TK-10 renal
SN12C renal = system: SN12C renal
SR leukemia = system: SR leukemia
A498 renal = system: A498 renal
LOX IMVI melanoma = system: LOX IMVI melanoma
HOP-92 NSCLC = system: HOP-92 NSCLC
EKVX NSCLC = system: EKVX NSCLC
HL-60(TB) leukemia = system: HL-60(TB) leukemia
MDA-MB-435 = system: MDA-MB-435
BT-549 breast = system: BT-549 breast
SF-539 CNS = system: SF-539 CNS
A549 NSCLC = system: A549 NSCLC
PC-3 prostate = system: PC-3 prostate
RPMI-8226 leukemia = system: RPMI-8226 leukemia
NCI/ADR-RES ovarian = system: NCI/ADR-RES ovarian
SK-MEL-28 melanoma = system: SK-MEL-28 melanoma
HS 578T breast = system: HS 578T breast
HCC-2998 colon = system: HCC-2998 colon
MDA-MB-231 breast = system: MDA-MB-231 breast
UACC-257 melanoma = system: UACC-257 melanoma

## O=S(=O)(Nc1ccc(Cl)c(F)c1)c1ccc(-c2cnc(C3CC3)o2)cc1
UO-31 renal
  GI50: 855 nM
  TGI: 11900 nM
COLO 205 colon
  GI50: 651 nM
  TGI: 9700 nM
CCRF-CEM leukemia
  GI50: 382 nM
  TGI: 21500 nM
K-562 leukemia
  GI50: 210 nM
  TGI: > 65300 nM
MALME-3M melanoma
  GI50: 821 nM
  TGI: 23400 nM
SW-620 colon
  GI50: 374 nM
  TGI: 15000 nM
SK-MEL-2 melanoma
  GI50: 603 nM
  TGI: 18900 nM
OVCAR-8 ovarian
  GI50: 1090 nM
  TGI: 19800 nM
ACHN renal
  GI50: 622 nM
  TGI: 15800 nM
MCF7 breast
  GI50: 284 nM
  TGI: 13400 nM
SF-295 CNS
  GI50: 324 nM
  TGI: 2990 nM
NCI-H522 lung
  GI50: 192 nM
  TGI: 4420 nM
SNB-75 CNS
  GI50: 172 nM
  TGI: 692 nM
IGROV1 ovarian
  GI50: 556 nM
  TGI: 15200 nM
UACC-62 melanoma
  GI50: 281 nM
  TGI: 8000 nM
HT29 colon
  GI50: 339 nM
  TGI: 5270 nM
SK-MEL-5 melanoma
  GI50: 511 nM
  TGI: 11100 nM
HCT-15 colon
  GI50: 332 nM
  TGI: 12600 nM
HCT-116 colon
  GI50: 382 nM
  TGI: 12700 nM
NCI-H23 lung
  GI50: 1190 nM
  TGI: 13500 nM
SK-OV-3 ovarian
  GI50: 887 nM
  TGI: 18300 nM
CAKI-1 renal
  GI50: 360 nM
  TGI: 15200 nM
RXF 393 renal
  GI50: 282 nM
  TGI: 2750 nM
MOLT-4 leukemia
  GI50: 614 nM
  TGI: 25000 nM
NCI-H460 lung
  GI50: 413 nM
  TGI: 11600 nM
786-0 renal
  GI50: 535 nM
  TGI: 16200 nM
HOP-62 NSCLC
  GI50: 579 nM
  TGI: 17600 nM
SNB-19 CNS
  GI50: 477 nM
  TGI: 14800 nM
OVCAR-4 ovarian
  GI50: 1820 nM
  TGI: 16200 nM
SF-268 CNS
  GI50: 1030 nM
  TGI: 20100 nM
U251 CNS
  GI50: 448 nM
  TGI: 14400 nM
T-47D breast
  GI50: 436 nM
  TGI: 15600 nM
OVCAR-5 ovarian
  GI50: 1610 nM
  TGI: 14500 nM
OVCAR-3 ovarian
  GI50: 357 nM
  TGI: 3480 nM
KM12 colon
  GI50: 379 nM
  TGI: 13300 nM
DU-145 prostate
  GI50: 1650 nM
  TGI: 14700 nM
NCI-H226 lung
  GI50: 1250 nM
  TGI: 16500 nM
M14 melanoma
  GI50: 328 nM
  TGI: 12900 nM
TK-10 renal
  GI50: 1550 nM
  TGI: 12700 nM
SN12C renal
  GI50: 808 nM
  TGI: 14400 nM
SR leukemia
  GI50: 253 nM
  TGI: > 43000 nM
A498 renal
  GI50: 232 nM
  TGI: 922 nM
LOX IMVI melanoma
  GI50: 503 nM
  TGI: 19100 nM
HOP-92 NSCLC
  GI50: 734 nM
  TGI: 6610 nM
EKVX NSCLC
  GI50: 1050 nM
  TGI: 14800 nM
HL-60(TB) leukemia
  GI50: 313 nM
  TGI: 3800 nM
MDA-MB-435
  GI50: 85.3 nM
  TGI: 484 nM
BT-549 breast
  GI50: 515 nM
  TGI: 15400 nM
SF-539 CNS
  GI50: 354 nM
  TGI: 2780 nM
A549 NSCLC
  GI50: 825 nM
  TGI: 14700 nM
PC-3 prostate
  GI50: 516 nM
  TGI: 13900 nM
RPMI-8226 leukemia
  GI50: 531 nM
  TGI: > 53400 nM
NCI/ADR-RES ovarian
  GI50: 369 nM
  TGI: 7560 nM
SK-MEL-28 melanoma
  GI50: 1580 nM
  TGI: 17400 nM
HS 578T breast
  GI50: 355 nM
  TGI: 8560 nM
HCC-2998 colon
  GI50: 1720 nM
  TGI: 12300 nM
MDA-MB-231 breast
  GI50: 1060 nM
  TGI: 11500 nM
UACC-257 melanoma
  GI50: 1350 nM
  TGI: 18200 nM
